According to US20160067246A1, “USE OF PHOSPHODIESTERASE 5A INHIBITORS FOR THE TREATMENT OF MUSCULAR DYSTROPHY” (CEDARS-SINAI MEDICAL CENTER, priority 2013, published 2016):
Like-named read-outs stand apart in the source and are kept apart here.

Legend:
Format in all cases: in vivo, human
[1] = system: patients with Becker muscular dystrophy (BMD); assay: Functional sympatholysis: LBNP-induced decrease in forearm muscle oxygenation (NIR spectroscopy) at rest vs handgrip, tadalafil acute crossover trial
Description: Forearm muscle oxygenation was measured with near-infrared (NIR) spectroscopy, which is based on the principle that laser light with wavelengths in the 700-900 nm range easily penetrates skeletal muscle, and is absorbed by the iron-porphyrin moieties in hemoglobin and myoglobin. Changes in NIR light absorption are proportional to changes in the relative concentrations of oxygenated hemoglobin and myoglobin (HbO2 and MbO2). Because of their nearly identical absorption spectra, individual contributions of HbO2 and MbO2 cannot be determined. The NIR signals reflect changes in oxygenation occurring mainly in the microvasculature, because vessels greater than one millimeter in diameter are maximal absorbers of photons due to the high extinction coefficient of blood. Thus, NIR spectroscopy provides continuous measurement of the adequacy of tissue oxygen delivery relative to its use. […] Changes in forearm tissue oxygenation were expressed as a percentage of […] exercise was performed using a dynamometer ([…] Dynamometer modified by Stoelting, Wood Dale, Ill.). […] The pressure in the chamber was measured by a Statham transducer (Gould Inc., Oxnard, Calif.). […] Reflex vasoconstriction was measured as the LBNP-induced decrease in forearm muscle oxygenation by NIR spectroscopy; this approach provides a valid measure of reflex neurogenic vasoconstriction under these conditions (13). The BP, heart rate, handgrip force, and NIR signals were recorded in response to two minutes of LBNP applied at rest and during the third to fifth minutes of the seven-minute exercise period. […] Patients were queried about potential tadalafil-specific side-effects both for safety monitoring and to assess whether blinding was maintained. tadalafil blood levels were measured using high performance liquid chromatography/tandem mass spectrometry (NMS Labs Willow Grove, Pa.). […] Exercise-induced attenuation of reflex vasoconstriction (functional sympatholysis) was assessed by comparing the LBNP-induced AHbO2+MbO2 (% TLS) at rest vs. the LBNP-induced decrease in AHbO2+MbO2 during handgrip. […]

[2] = system: patients with Becker muscular dystrophy (BMD); assay: Blood pressure, heart rate and adverse events in BMD tadalafil trial
Description: Subjects were studied in the supine position. Heart rate was measured continuously by electrocardiography and BP by automated oscillometric sphygmomanometry ([…] Monitor 300 Series, […].). […] The order of tadalafil/placebo was random. The research pharmacist placed tadalafil tablets or lactose powder (placebo) in opaque capsules to blind patients and investigators, both for the test dose and study dose of drug or placebo. Patients were queried about potential tadalafil-specific side-effects both for safety monitoring and to assess whether blinding was maintained. tadalafil blood levels were measured using high performance liquid chromatography/tandem mass spectrometry (NMS Labs Willow Grove, Pa.).

[3] = Pharmacokinetic study and drug blood levels in boys with DMD; conditions: for half-life: serum, oral, read-out: elimination half-life (converted)
Description: Serum blood samples for pharmacokinetic determinations were collected from patients at time 0-hr, 0.25-hr, 0.5-hr, 1-hr, 2-hr, 4-hr, 8-hr, and 24-hr following each treatment (sildenafil and tadalafil) and each dose (0.5 vs. 1.0 mg/kg). Blood levels were measured with high-performance liquid chromatography-tandem mass spectrometry (NMS Labs).
Patients received 0.5 mg/kg of oral sildenafil or tadalafil on day 1, followed by 1.0 mg/kg of sildenafil or tadalafil on day 2. Patients then crossed over 2 weeks later for the opposite drug. Experiments were performed 1 hour (sildenafil) or 3 hours (tadalafil) after oral treatment to match the experiment with the peak blood level. Patients were queried about potential side-effects throughout the study visit.

## CN1CC(=O)N2[C@H](c3ccc4c(c3)OCO4)c3[nH]c4ccccc4c3C[C@@H]2C1=O [tadalafil]
[1]; 10 BMD patients, single 20 mg oral tadalafil, >=3 h after dose
  attenuation of the reflex (LBNP) decrease in muscle oxygenation during handgrip: 52±12%
[1]; BMD patients, 20 mg tadalafil, at rest
  LBNP-induced ΔHbO2+MbO2 (% TLS) at rest: −17±2%
[1]; BMD patients, 20 mg tadalafil, during handgrip 20% MVC
  LBNP-induced ΔHbO2+MbO2 (% TLS) during handgrip: −9±2%
[2]; 10 mg test dose and 20 mg study dose
  adverse events or side-effects: no adverse events or side-effects
[2]; post-tadalafil (pre 72±2), P>0.05
  diastolic blood pressure post-tadalafil: 73±3 mm Hg
[2]; post-tadalafil (pre 84±4), P>0.05
  heart rate post-tadalafil: 80±4 beats per minute
[2]; post-tadalafil (pre 116±3), P>0.05
  systolic blood pressure post-tadalafil: 114±4 mmHg
[3]; boys with DMD, 1.0 mg/kg oral
  peak blood level: 492.5 ± 47.3 ng/mL
[3]; boys with DMD, 0.5 and 1.0 mg/kg oral
  time of peak blood level after oral administration: 2 to 4 h
[3]; male, human, in vivo, po
  time the drug remained elevated in the blood: up to 24 hours
[3]; male, human, boys with DMD, 0.5 mg/kg dose
  half-life: 24.9 ± 3.1 h
[3]; male, human, boys with DMD, 1.0 mg/kg dose
  half-life: 39.5 ± 6.6 h
